Results: ChEMBL document CHEMBL1134839, “Methylene-gem-difluorocyclopropane analogues of nucleosides: synthesis, cyclopropene-methylenecyclopropane rearrangement, and biological activity” (2001)

Tests used:
[1] = system: MC-38; test: The compound was tested for antitumor activity against mouse tumor C38 cells; assay type: functional
[2] = The compound was tested for antitumor activity against normal cells (fibroblast); assay type: functional, Homo sapiens
[3] = The compound was tested for antitumor activity against human tumor H15 cells; assay type: functional
[4] = The compound was tested for antitumor activity against human colon tumor H116 cells; assay type: functional
[5] = The compound was tested for antitumor activity against mouse tumor M17/Adr cells; assay type: functional
[6] = The compound was tested for antitumor activity against L1210 cells; assay type: functional, Mus musculus

Compound | Activity [1] | Activity [2] | Activity [3] | Activity [4] | Activity [5] | Activity [6]
Nc1ncnc2c1ncn2/C=C1\C(CO)C1(F)F (configuration not stated) | 470 | 130 | 300 | 200 | 370 | 420
Nc1ncnc2c1ncn2/C=C1/C(CO)C1(F)F (configuration not stated) | 580 | 500 | 550 | 550 | 590 | 660
Nc1ncnc2c1ncn2/C=C1/CC1CO (configuration not stated) | 600 | 130 |  | 160 | 460 | 570
